Experimental data taken from ChEMBL document CHEMBL1201862, “PubChem BioAssay data set” (2004).
Active and inactive are the calls of the source.

Tests used:
[1] = test system: MEF; assay: SAR analysis of small molecule cytotoxicity of MazEF TA System activators in embryonic fibroblast (MEF) cells. [Related pubchem assays (depositor defined):AID504720, AID504743]; type: functional; details: Mus musculus
[2] = target: T1, Endoribonuclease toxin MazF (Escherichia coli K-12, UniProt P0AE70); assay: MazF endoribonuclease activators, SAR follow-up, biochemical, fluorescence, single-stranded RNA substrate (AID 588603); type: functional
T1 sequence (P0AE70 whole entry): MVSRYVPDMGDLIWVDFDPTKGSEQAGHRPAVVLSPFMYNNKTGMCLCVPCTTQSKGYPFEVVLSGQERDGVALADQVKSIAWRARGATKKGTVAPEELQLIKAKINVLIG

[3] = target: T1, Endoribonuclease toxin MazF; assay: SAR analysis of small molecule activators of the MazEF TA System via a fluorescence-based single-stranded RNase assay counterscreen. [Related pubchem assays (depositor defined):AID504720, AID504743]; type: functional
[4] = target: T1, Endoribonuclease toxin MazF; assay: fluorescent RNA oligo signal without MazF, dose response, counter-screen for MazEF activator project, biochemical, fluorescence, single-stranded RNase substrate (AID 588502); type: functional
[5] = target: T1, Endoribonuclease toxin MazF; assay: MazF toxin RNase activators, dose response, biochemical, fluorescence, single-stranded RNA substrate, uHTS hits (AID 588481); type: functional
[6] = target: Delta-type opioid receptor (Homo sapiens, UniProt P41143); assay: Counterscreen for agonists of heterodimerization of the mu 1 (OPRM1) and delta 1 (OPRD1) opioid receptors: Luminescence-based cell-based high throughput dose response assay to identify agonists of OPRD1 homodimerization. [Related pubchem assays (depositor defined):AID504326, AID504355, AID504692, AID504904, AID504905]; type: functional
[7] = test system: HEK293; assay: inhibitors of LMP1-driven NF-kB reporter, dose response, cell-based, HEK293, luciferase, cherry-pick (AID 588343); type: functional; details: Homo sapiens
[8] = target: 5-hydroxytryptamine receptor 5A (Homo sapiens, UniProt P47898); assay: Counterscreen for agonists of OPRM1-OPRD1 heterodimerization: luminescence-based cell-based high throughput dose response assay to identify agonists of 5-hydroxytryptamine (serotonin) 5A receptor (HTR5A). [Related pubchem assays (depositor defined):AID504326, AID504355, AID504692, AID504904, AID504905]; type: functional
[9] = target: Voltage-gated inwardly rectifying potassium channel KCNH2 (Homo sapiens, UniProt Q12809); assay: hERG protection from proarrhythmic block, potency, dose response, cell-based, thallium flux (AID 2121); type: ADME
[10] = target: Mu-type opioid receptor (Homo sapiens, UniProt P35372); assay: Counterscreen for agonists of heterodimerization of the mu 1 (OPRM1) and delta 1 (OPRD1) opioid receptors: Luminescence-based cell-based high throughput dose response assay to identify agonists of OPRM1 homodimerization.; type: functional;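 further: U2OS cells expressing OPRM1 and beta-arrestin as split beta-galactosidase partners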
[11] = test system: Candida albicans; assay: growth inhibition of azole-resistant C. albicans, dose response, CaCi-8 strain, Alamar Blue, dry powder, set 2 (AID 488909); type: functional, organism-based
[12] = test system: Candida albicans; assay: reversal of fluconazole resistance in C. albicans, dose response, CaCi-2 strain, Alamar Blue, dry powder, set 3 (AID 488907); type: functional, organism-based
[13] = target: T2, Short transient receptor potential channel 4 (Mus musculus, UniProt Q9QUQ5); assay: SAR Analysis for the identification of selective inhibits of the transient receptor potential cation channel C4 (TRPC4): Automated Electrophysiology_2. [Related pubchem assays (depositor defined):AID2256]; type: functional
T2 sequence (Q9QUQ5 whole entry): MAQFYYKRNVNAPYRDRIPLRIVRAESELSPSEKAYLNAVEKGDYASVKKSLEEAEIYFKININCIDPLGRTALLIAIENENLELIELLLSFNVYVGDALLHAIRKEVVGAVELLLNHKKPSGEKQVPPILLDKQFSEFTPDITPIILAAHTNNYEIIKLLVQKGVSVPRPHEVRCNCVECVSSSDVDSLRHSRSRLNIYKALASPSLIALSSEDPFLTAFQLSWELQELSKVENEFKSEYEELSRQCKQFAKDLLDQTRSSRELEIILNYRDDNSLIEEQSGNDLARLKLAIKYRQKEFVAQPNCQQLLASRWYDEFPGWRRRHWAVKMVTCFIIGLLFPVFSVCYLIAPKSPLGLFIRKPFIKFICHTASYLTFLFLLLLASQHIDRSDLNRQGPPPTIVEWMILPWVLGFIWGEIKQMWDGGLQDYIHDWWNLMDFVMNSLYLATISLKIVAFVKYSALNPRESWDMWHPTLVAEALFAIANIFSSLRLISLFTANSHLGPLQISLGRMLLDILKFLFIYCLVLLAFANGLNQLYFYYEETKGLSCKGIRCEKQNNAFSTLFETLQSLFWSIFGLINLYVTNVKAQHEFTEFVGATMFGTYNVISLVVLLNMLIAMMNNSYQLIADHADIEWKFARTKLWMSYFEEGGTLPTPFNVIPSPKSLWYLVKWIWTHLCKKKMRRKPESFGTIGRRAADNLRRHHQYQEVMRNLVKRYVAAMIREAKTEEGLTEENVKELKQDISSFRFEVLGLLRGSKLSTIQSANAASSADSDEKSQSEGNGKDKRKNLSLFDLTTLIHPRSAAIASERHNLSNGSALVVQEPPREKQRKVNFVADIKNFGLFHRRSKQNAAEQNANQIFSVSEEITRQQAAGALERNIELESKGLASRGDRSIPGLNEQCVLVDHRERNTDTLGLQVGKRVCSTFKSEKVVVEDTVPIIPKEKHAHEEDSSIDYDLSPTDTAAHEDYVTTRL

[14] = target: T2, Short transient receptor potential channel 4; assay: TRPC4 inhibitor concentration-response, dose response, cell-based, HEK293 TRPC4/mu-opioid, DAMGO stimulus, Fluo-4 (AID 492994); type: functional
[15] = target: Phospholipase D2 (Homo sapiens, UniProt O14939); assay: PLD2 inhibitor potency in cells, dose response (AID 602147); type: functional;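 further: cellular assay in HEK293 cells overexpressing GFP-tagged PLD2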
[16] = target: Phospholipase D1 (Homo sapiens, UniProt Q13393); assay: PLD1 inhibitor potency in cells, dose response (AID 602151); type: functional;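 further: cellular PLD1 assay in Calu-1 cells stimulated with PMA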
[17] = test system: HEK293; assay: cells; type: functional, cell-based; details: Homo sapiens
[18] = target: T3, Nuclear receptor subfamily 0 group B member 1 (Homo sapiens, UniProt P51843); assay: Luminescence-based cell-based high throughput dose response assay for inhibitors of the orphan nuclear receptor subfamily 0, group B, member 1 (DAX1; NR0B1). [Related pubchem assays (depositor defined):AID504766, AID504790]; type: functional
T3 sequence (P51843 whole entry): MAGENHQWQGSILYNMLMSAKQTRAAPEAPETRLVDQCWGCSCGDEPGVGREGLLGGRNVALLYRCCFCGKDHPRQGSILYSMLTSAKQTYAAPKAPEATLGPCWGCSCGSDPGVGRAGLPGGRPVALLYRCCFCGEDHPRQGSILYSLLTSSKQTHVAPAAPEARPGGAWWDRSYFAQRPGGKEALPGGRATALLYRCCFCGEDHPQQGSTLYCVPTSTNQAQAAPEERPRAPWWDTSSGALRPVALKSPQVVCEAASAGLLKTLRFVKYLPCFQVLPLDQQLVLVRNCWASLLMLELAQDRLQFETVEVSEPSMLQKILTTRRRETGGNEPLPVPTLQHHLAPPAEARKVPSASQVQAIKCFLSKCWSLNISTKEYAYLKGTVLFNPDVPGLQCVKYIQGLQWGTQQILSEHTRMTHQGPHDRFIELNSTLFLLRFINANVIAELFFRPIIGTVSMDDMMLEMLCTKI

[19] = target: Large T antigen (Simian virus 40, UniProt P03070); type: functional, Betapolyomavirus macacae;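 further: Confirmatory-stage PubChem screen for compounds that inhibit SV40 T antigen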
[20] = target: FAD-linked sulfhydryl oxidase ALR (Homo sapiens, UniProt P55789); assay: inhibitors of human ALR sulfhydryl oxidase, dose response, biochemical, H2O2 detection, luminescence, cherry-pick (AID 493248)
[21] = test system: SN12K1; assay: cells; type: functional; details: Homo sapiens, SN12K1
[22] = test system: P388/ADR; assay: cells; type: functional; details: Mus musculus, P388/ADR
[23] = ADP-Glo luciferase interference without Dyrk1A, dose response, artefact control for Dyrk1A inhibitor project, biochemical, luminescence, cherry-pick, set 02 (AID 588348)
[24] = test system: P388; assay: cells; type: functional; details: Mus musculus, P388
[25] = target: Dual specificity tyrosine-phosphorylation-regulated kinase 1A (Rattus norvegicus, UniProt Q63470); type: biochemical, Homo sapiens

Sequence of Voltage-gated inwardly rectifying potassium channel KCNH2 (Q12809 whole entry): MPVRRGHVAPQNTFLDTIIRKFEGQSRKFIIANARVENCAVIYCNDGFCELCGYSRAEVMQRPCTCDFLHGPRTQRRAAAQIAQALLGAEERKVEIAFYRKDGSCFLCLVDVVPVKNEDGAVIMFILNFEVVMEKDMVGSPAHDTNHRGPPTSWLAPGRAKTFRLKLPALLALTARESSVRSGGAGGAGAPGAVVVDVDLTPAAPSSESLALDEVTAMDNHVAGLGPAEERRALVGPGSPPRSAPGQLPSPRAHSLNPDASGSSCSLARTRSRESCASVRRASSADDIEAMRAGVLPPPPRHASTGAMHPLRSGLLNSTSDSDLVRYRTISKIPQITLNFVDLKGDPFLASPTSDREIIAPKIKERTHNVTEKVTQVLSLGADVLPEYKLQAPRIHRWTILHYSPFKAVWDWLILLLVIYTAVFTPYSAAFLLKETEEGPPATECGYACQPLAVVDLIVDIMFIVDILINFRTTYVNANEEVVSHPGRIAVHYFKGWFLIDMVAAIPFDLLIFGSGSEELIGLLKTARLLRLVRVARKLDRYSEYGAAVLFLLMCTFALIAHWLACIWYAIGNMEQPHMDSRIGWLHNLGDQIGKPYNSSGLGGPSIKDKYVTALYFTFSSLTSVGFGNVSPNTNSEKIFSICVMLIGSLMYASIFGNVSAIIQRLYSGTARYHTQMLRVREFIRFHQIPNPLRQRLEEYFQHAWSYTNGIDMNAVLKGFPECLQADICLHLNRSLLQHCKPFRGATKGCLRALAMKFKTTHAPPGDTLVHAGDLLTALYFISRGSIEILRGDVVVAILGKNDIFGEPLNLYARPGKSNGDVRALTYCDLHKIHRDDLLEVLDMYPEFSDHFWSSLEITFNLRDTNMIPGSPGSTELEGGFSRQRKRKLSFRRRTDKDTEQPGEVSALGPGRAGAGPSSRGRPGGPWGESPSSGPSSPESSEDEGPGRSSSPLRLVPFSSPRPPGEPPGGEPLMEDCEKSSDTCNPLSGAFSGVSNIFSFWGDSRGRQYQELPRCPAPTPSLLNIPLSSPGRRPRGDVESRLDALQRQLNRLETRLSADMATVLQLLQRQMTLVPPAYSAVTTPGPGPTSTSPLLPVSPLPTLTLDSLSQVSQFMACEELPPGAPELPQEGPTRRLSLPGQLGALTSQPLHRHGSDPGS
Sequence of 5-hydroxytryptamine receptor 5A (P47898 whole entry): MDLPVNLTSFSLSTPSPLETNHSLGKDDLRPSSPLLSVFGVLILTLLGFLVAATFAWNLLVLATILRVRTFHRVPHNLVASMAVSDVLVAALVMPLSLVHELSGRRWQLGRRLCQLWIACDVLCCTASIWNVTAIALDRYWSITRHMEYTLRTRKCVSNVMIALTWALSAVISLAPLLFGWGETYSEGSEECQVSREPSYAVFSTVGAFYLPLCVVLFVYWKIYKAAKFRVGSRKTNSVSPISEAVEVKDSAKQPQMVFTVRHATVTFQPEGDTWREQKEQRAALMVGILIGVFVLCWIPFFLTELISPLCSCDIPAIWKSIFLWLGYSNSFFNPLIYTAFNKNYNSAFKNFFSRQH
Sequence of FAD-linked sulfhydryl oxidase ALR (P55789 whole entry): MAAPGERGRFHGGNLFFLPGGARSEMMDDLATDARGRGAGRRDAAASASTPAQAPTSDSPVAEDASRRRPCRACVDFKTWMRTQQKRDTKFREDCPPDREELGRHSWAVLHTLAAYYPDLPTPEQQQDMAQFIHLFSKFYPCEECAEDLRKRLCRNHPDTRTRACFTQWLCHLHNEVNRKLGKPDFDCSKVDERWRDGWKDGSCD
Sequence of Phospholipase D2 (O14939 whole entry): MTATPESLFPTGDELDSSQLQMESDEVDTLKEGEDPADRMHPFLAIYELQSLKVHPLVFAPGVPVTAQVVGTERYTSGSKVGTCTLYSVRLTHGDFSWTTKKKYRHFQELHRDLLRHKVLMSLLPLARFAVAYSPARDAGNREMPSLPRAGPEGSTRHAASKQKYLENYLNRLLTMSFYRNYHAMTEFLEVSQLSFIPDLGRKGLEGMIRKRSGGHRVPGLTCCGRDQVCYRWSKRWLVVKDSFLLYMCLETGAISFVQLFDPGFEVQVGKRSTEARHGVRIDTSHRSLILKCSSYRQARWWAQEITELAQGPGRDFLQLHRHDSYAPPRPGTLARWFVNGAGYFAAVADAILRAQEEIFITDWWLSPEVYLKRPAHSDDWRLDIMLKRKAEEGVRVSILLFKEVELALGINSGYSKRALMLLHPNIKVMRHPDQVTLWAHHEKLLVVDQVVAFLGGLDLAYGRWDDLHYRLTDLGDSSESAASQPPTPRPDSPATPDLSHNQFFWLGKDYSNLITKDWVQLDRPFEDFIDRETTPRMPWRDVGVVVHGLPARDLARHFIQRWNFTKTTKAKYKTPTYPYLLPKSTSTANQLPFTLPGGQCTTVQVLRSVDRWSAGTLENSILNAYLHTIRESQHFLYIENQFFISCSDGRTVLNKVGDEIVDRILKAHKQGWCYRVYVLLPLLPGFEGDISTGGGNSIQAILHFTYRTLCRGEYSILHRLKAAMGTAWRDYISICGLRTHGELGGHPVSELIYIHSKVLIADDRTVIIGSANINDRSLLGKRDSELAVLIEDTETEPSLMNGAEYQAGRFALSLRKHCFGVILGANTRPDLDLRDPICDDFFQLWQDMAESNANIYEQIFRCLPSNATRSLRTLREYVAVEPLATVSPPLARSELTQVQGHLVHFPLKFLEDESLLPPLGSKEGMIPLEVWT
Sequence of Delta-type opioid receptor (P41143 whole entry): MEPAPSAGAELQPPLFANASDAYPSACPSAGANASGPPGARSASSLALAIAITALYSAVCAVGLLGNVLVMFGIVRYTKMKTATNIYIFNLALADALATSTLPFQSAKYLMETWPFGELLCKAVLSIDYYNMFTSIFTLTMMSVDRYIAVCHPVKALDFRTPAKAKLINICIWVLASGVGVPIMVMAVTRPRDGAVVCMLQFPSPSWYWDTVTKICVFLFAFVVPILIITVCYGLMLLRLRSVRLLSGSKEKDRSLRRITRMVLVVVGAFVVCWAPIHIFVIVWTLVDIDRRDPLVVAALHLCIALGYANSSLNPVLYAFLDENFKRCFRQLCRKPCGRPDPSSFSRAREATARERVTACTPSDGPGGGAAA
Sequence of Large T antigen (P03070 whole entry): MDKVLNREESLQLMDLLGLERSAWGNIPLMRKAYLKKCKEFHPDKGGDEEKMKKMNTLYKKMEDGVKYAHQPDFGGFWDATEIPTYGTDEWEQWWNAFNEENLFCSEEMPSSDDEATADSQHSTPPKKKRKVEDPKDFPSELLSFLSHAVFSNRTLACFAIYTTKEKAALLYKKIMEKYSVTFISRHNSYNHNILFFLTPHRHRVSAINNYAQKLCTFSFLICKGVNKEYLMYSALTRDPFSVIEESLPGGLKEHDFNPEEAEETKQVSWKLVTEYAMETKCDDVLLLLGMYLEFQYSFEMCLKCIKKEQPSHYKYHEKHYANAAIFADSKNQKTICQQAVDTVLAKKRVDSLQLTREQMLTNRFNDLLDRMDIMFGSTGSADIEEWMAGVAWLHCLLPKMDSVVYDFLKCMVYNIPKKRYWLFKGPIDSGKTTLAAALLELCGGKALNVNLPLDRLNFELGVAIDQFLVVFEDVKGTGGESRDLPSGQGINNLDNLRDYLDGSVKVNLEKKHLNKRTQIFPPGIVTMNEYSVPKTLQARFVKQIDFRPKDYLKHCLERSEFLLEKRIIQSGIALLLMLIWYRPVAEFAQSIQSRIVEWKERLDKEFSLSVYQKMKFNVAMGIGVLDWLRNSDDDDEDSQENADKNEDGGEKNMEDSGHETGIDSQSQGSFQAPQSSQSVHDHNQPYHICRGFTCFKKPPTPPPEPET
Sequence of Phospholipase D1 (Q13393 whole entry): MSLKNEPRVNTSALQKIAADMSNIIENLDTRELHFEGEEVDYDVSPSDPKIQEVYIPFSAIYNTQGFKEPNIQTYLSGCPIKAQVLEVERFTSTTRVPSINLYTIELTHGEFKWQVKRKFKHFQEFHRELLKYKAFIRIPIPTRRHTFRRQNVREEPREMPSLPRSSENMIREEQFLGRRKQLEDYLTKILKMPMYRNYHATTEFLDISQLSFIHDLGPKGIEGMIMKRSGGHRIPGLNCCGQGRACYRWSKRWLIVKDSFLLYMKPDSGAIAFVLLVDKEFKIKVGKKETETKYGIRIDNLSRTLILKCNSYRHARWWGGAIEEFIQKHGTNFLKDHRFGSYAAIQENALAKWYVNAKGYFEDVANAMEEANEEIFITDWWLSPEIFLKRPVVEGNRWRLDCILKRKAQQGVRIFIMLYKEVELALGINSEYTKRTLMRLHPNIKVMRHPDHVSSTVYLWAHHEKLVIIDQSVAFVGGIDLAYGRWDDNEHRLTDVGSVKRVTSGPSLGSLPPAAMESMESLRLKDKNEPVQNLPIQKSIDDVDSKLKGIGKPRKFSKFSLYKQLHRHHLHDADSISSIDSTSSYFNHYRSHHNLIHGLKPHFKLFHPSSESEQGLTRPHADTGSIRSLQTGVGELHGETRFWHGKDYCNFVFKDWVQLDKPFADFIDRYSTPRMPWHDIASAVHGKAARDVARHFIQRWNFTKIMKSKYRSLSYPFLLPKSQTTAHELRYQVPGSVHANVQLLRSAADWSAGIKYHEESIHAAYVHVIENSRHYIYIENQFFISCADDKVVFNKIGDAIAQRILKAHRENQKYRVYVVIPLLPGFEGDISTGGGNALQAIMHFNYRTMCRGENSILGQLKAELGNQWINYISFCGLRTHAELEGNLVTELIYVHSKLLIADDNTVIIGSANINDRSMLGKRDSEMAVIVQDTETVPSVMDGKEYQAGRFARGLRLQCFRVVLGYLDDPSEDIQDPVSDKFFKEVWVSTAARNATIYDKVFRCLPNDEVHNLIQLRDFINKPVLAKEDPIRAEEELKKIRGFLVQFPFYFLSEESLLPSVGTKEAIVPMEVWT

Cc1ccc(CNC(=O)c2ccc(CNS(=O)(=O)c3ccc4c(c3)C(C)(C)C(=O)N4C)cc2)o1
CC50 [1]: > 99 µM (inactive)
EC50 [2]: 9.72 µM (active)
EC50 [3]: > 99 µM (inactive)
EC50 [4]: > 99 µM (inactive)
EC50 [5]: 9.43 µM (active)

Cc1ccccc1Cn1c(O)c(N=NC(S)=Nc2ccccc2F)c2ccccc21
EC50 [6]: > 92.5 µM (inactive)
AC50 [7]: 3.18 µM (active)
EC50 [8]: > 92.5 µM (inactive)
EC50 [9]: 0.87 µM (active)
EC50 [10]: > 92.5 µM (inactive)

CC(C)C(=O)N1CCN(c2ccnc3cc(Cl)ccc23)CC1
AC50 [11]: < 0.195 µM (active)
AC50 [12]: 3.03 µM (active)

Cc1cc(N2CC(C)CC(C)C2)nc2ccccc12 (configuration not stated)
IC50 [13]: 11.9 µM (active)
IC50 [14]: 12.6 µM (active)

C[C@@H](CN1CCC(n2c(=O)[nH]c3ccccc32)CC1)NC(=O)c1ccc(C(F)(F)F)cc1
IC50 [15]: 20 µM (active)
IC50 [16]: 0.121 µM (active)

Cc1cc(OCC(=O)N2CCC(C(N)=O)CC2)c2c(C)cc(=O)oc2c1
IC50 [17]: > 67.6 µM (inactive)
IC50 [18]: > 67.6 µM (inactive)

Oc1cc(O)cc(/C=C/c2ccc(O)c(O)c2)c1 [PICEATANNOL]
IC50 [19]: 16.4 µM (active)
AC50 [20]: 0.689 µM (active)
GI50 [21]: 3.94 µM (inactive)
GI50 [22]: 7.76 µM (inactive)
AC50 [23]: 27.7 µM (active)
GI50 [24]: 5.48 µM (inactive)
AC50 [25]: 7.53 µM (active)
EC50 [4]: > 99 µM (inactive)
EC50 [5]: > 99 µM (inactive)
